# Experimental data reported in ChEMBL document CHEMBL1287644, “The novel benzopyran class of selective cyclooxygenase-2 inhibitors. Part III: the three microdose candidates” (Bioorg Med Chem Lett, 2010).
# How the values were obtained:
# [1] = molecular target: Prostaglandin G/H synthase 1 (Homo sapiens, UniProt P23219); test: Inhibition of human COX-1
# Homo sapiens = organism: Homo sapiens; test: Selectivity ratio of IC50 for human COX1 to IC50 for human COX2
# Rattus norvegicus [2] = test: Antiinflammatory activity in rat air pouch model assessed as inhibition of carrageenan-induced PGE2 production administered 1 hr before carrageenan challenge; assay type: functional; conditions: for ED50: Rattus norvegicus
# Rattus norvegicus [3] = test: Antiinflammatory activity in rat assessed as reduction of carrageenan-induced paw edema; assay type: functional
# Rattus norvegicus [4] = organism: Rattus norvegicus; test: Analgesic activity against carrageenan-induced thermal hyperalgesia in rat; assay type: functional
# Rattus norvegicus [5] = organism: Rattus norvegicus; test: Antiarthritic activity in rat assessed as reduction in adjuvant-induced arthritic pain; assay type: functional
# [6] = Half life in rat; assay type: ADME, organism-based; conditions: in vivo
# [7] = Half life in dog; assay type: ADME, organism-based, Canis lupus familiaris; conditions: in vivo
# [8] = Half life in human at 10 ug, po; assay type: ADME, organism-based; conditions: in vivo
# [9] = Half life in cynomolgus monkey; assay type: ADME, organism-based, Macaca fascicularis; conditions: in vivo
# Rattus norvegicus [10] = test: Antiinflammatory activity in rat air pouch model assessed as inhibition of carrageenan-induced PGE2 production administered 1 hr after carrageenan challenge
# Prostaglandin G/H synthase 1, sequence (P23219 whole entry): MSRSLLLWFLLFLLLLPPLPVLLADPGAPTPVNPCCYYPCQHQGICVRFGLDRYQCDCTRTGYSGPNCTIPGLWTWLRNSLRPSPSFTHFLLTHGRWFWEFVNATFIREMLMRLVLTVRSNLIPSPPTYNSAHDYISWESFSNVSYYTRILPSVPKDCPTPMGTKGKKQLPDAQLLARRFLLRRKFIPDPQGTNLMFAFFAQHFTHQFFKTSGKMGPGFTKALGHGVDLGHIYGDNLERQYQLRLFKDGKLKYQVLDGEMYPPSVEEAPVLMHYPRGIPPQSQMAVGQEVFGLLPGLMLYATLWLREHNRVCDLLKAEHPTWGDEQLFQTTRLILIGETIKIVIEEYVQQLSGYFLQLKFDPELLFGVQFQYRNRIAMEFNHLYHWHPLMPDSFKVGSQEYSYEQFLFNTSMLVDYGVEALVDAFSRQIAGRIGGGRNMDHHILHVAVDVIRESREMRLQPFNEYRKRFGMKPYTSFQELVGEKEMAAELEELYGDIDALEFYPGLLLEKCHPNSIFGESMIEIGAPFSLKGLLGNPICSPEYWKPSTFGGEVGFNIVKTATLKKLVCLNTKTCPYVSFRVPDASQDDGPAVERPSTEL
IC50 [1] [µM],Ratio IC50 (Homo sapiens),Compound,also measured
29.8,229,Cc1cc2c(c(C)c1Cl)C=C(C(=O)O)C(C(F)(F)F)O2 (stereo not given),
2.28,,Cc1cc2c(c(C)c1Cl)C=C(C(=O)O)[C@@H](C(F)(F)F)O2,ED50 (Rattus norvegicus [2]): 0.41 mg/kg; ED50 (Rattus norvegicus [3]): 8 mg/kg; ED50 (Rattus norvegicus [4]): 7.6 mg/kg; ED50 (Rattus norvegicus [5]): 3.2 mg/kg; half-life [6]: 4.7 h; half-life [7]: 23 h; half-life [8]: 11 h; half-life [9]: 5.4 h
,2.9,COc1cc(C)cc2c1OC(C(F)(F)F)C(C(=O)O)=C2 (stereo not given),
115,1040,N#Cc1ccc2c(c1)C=C(C(=O)O)C(C(F)(F)F)O2 (stereo not given),
7,163,CCCc1cc(OC(F)(F)F)cc2c1OC(C(F)(F)F)C(C(=O)O)=C2 (stereo not given),
30.8,,Cc1cc2c(c(C)c1Cl)C=C(C(=O)O)[C@H](C(F)(F)F)O2,
0.32,0.5,COc1cc(OC(F)(F)F)cc2c1OC(C(F)(F)F)C(C(=O)O)=C2 (stereo not given),
0.5,,CCc1cc(OC(F)(F)F)cc2c1OC(C(F)(F)F)C(C(=O)O)=C2 (stereo not given),
100,,CCCc1cc(OC(F)(F)F)cc2c1O[C@@H](C(F)(F)F)C(C(=O)O)=C2,
1.08,5.7,Cc1cc(Cl)c2c(c1)C=C(C(=O)O)C(C(F)(F)F)O2 (stereo not given),
,1,COc1ccc2c(c1)C=C(C(=O)O)C(C(F)(F)F)O2 (stereo not given),
17,773,O=C(O)C1=Cc2cc(OC(F)(F)F)ccc2OC1C(F)(F)F (stereo not given) [OCAROCOXIB],
0.14,0.5,CCc1cc(C)c2c(c1)C=C(C(=O)O)C(C(F)(F)F)O2 (stereo not given),
25.6,107,COc1cc(Cl)c2c(c1)C=C(C(=O)O)C(C(F)(F)F)O2 (stereo not given),
0.12,0.36,CCc1ccc2c(c1)C=C(C(=O)O)C(C(F)(F)F)O2 (stereo not given),inhibition (INH) (Rattus norvegicus [10]): 90%
,,Cc1cc(OC(F)(F)F)cc2c1O[C@H](C(F)(F)F)C(C(=O)O)=C2,inhibition (INH) (Rattus norvegicus [2]): >68%
2.58,12,Cc1cc(Cl)c(C)c2c1OC(C(F)(F)F)C(C(=O)O)=C2 (stereo not given),
169,704,Cc1cc(C)c2c(c1)C=C(C(=O)O)C(C(F)(F)F)O2 (stereo not given),
0.47,,Cc1cc(Cl)cc2c1OC(C(F)(F)F)C(C(=O)O)=C2 (stereo not given),
71.7,,CCCc1cc(OC(F)(F)F)cc2c1O[C@H](C(F)(F)F)C(C(=O)O)=C2,inhibition (INH) (Rattus norvegicus [2]): >68%
224,896,Cc1ccc2c(c1)C=C(C(=O)O)C(C(F)(F)F)O2 (stereo not given),inhibition (INH) (Rattus norvegicus [2]): 13%
,91,O=C(O)C1=Cc2cc(Cl)ccc2OC1C(F)(F)F (stereo not given),
19.9,,CCc1cc(OC(F)(F)F)cc2c1O[C@H](C(F)(F)F)C(C(=O)O)=C2,inhibition (INH) (Rattus norvegicus [2]): >72%; ED50 (Rattus norvegicus [2]): 1.87 mg/kg; ED50 (Rattus norvegicus [3]): 3.8 mg/kg; ED50 (Rattus norvegicus [4]): 5.6 mg/kg; ED50 (Rattus norvegicus [5]): 0.8 mg/kg; half-life [6]: 2 h; half-life [7]: 7.7 h; half-life [8]: 13 h; half-life [9]: 12 h
94.2,1290,C#Cc1ccc2c(c1)C=C(C(=O)O)C(C(F)(F)F)O2 (stereo not given),inhibition (INH) (Rattus norvegicus [2]): 60%
100,,Cc1cc(C)c2c(c1)C=C(C(=O)O)[C@@H](C(F)(F)F)O2,inhibition (INH) (Rattus norvegicus [2]): 80%; ED50 (Rattus norvegicus [2]): 2 mg/kg; ED50 (Rattus norvegicus [3]): 8.6 mg/kg; ED50 (Rattus norvegicus [4]): 20.7 mg/kg; ED50 (Rattus norvegicus [5]): 10 mg/kg; half-life [6]: 8.7 h; half-life [7]: 19 h; half-life [8]: 57 h; half-life [9]: 28 h
500,685,O=Cc1ccc2c(c1)C=C(C(=O)O)C(C(F)(F)F)O2 (stereo not given),
0.14,5.4,C#Cc1cc(Cl)c2c(c1)C=C(C(=O)O)C(C(F)(F)F)O2 (stereo not given),
4.39,,O=C(O)C1=Cc2cc(C(F)(F)F)ccc2OC1C(F)(F)F (stereo not given),
,,Cc1c(Cl)cc2c(c1C)O[C@H](C(F)(F)F)C(C(=O)O)=C2,inhibition (INH) (Rattus norvegicus [10]): 60%
100,,CCc1cc(OC(F)(F)F)cc2c1O[C@@H](C(F)(F)F)C(C(=O)O)=C2,
